± gives the expanded uncertainty stated by the source.
Experiment: molar heat capacity at constant pressure; xn = mol fraction of the nth substance listed
Details: 101.3 kPa, Liquid, Small sample (50 mg) DSC

CCC(C)(C)O [2-methylbutan-2-ol] + CCCCCCC
Details | molar heat capacity at constant pressure [J/K/mol]
300.15 K, x1 = 0.7015 | 252.48 ± 3.9
300.15 K, x1 = 0.8023 | 251.41 ± 3.9
300.15 K, x1 = 0.9139 | 250.21 ± 3.9
300.15 K, x1 = 0.9609 | 249.66 ± 3.9
301.14 K, x1 = 0.0061 | 225.7 ± 3.5
301.14 K, x1 = 0.0494 | 236.34 ± 3.7
301.14 K, x1 = 0.1 | 242.42 ± 3.8
301.14 K, x1 = 0.1999 | 248.44 ± 3.9
301.14 K, x1 = 0.2993 | 251.7 ± 3.9
301.14 K, x1 = 0.4051 | 253.31 ± 3.9
301.14 K, x1 = 0.4986 | 253.99 ± 3.9
301.14 K, x1 = 0.5981 | 254.13 ± 3.9
301.14 K, x1 = 0.7015 | 253.67 ± 3.9
301.14 K, x1 = 0.8023 | 252.61 ± 3.9
301.14 K, x1 = 0.9139 | 251.4 ± 3.9
301.14 K, x1 = 0.9609 | 250.8 ± 3.9
301.16 K, x1 = 0.0249 | 230.74 ± 3.6
301.58 K, x1 = 0.1547 | 246.46 ± 3.8
302.14 K, x1 = 0.0061 | 226.13 ± 3.5
302.14 K, x1 = 0.0249 | 231.02 ± 3.6
302.14 K, x1 = 0.0494 | 236.64 ± 3.7
302.14 K, x1 = 0.1 | 243.03 ± 3.8
302.14 K, x1 = 0.1547 | 246.89 ± 3.8
302.14 K, x1 = 0.1999 | 249.24 ± 3.9
302.14 K, x1 = 0.2993 | 252.65 ± 3.9
302.14 K, x1 = 0.4051 | 254.36 ± 3.9
302.14 K, x1 = 0.4986 | 255.15 ± 4
302.14 K, x1 = 0.5981 | 255.29 ± 4
302.14 K, x1 = 0.7015 | 254.9 ± 4
302.14 K, x1 = 0.8023 | 253.83 ± 3.9
302.14 K, x1 = 0.9139 | 252.62 ± 3.9
302.14 K, x1 = 0.9609 | 251.98 ± 3.9
303.15 K, x1 = 0.0061 | 226.42 ± 3.5
303.15 K, x1 = 0.0249 | 231.23 ± 3.6
303.15 K, x1 = 0.0494 | 236.93 ± 3.7
303.15 K, x1 = 0.1 | 243.44 ± 3.8
303.15 K, x1 = 0.1547 | 247.5 ± 3.8
303.15 K, x1 = 0.1999 | 249.92 ± 3.9
303.15 K, x1 = 0.2993 | 253.53 ± 3.9
303.15 K, x1 = 0.4051 | 255.32 ± 4
303.15 K, x1 = 0.4986 | 256.2 ± 4
303.15 K, x1 = 0.5981 | 256.41 ± 4
303.15 K, x1 = 0.7015 | 256.05 ± 4
303.15 K, x1 = 0.8023 | 255 ± 4
303.15 K, x1 = 0.9139 | 254.11 ± 3.9
303.15 K, x1 = 0.9609 | 253.07 ± 3.9
304.14 K, x1 = 0.0061 | 226.83 ± 3.5
304.14 K, x1 = 0.0494 | 237.28 ± 3.7
304.14 K, x1 = 0.1 | 243.93 ± 3.8
304.14 K, x1 = 0.1547 | 248.12 ± 3.8
304.14 K, x1 = 0.1999 | 250.66 ± 3.9
304.14 K, x1 = 0.4986 | 257.22 ± 4
304.14 K, x1 = 0.8023 | 256.13 ± 4
304.14 K, x1 = 0.9139 | 254.91 ± 4
304.14 K, x1 = 0.9609 | 254.18 ± 3.9
304.16 K, x1 = 0.0249 | 231.5 ± 3.6
304.16 K, x1 = 0.2993 | 254.39 ± 3.9
304.16 K, x1 = 0.4051 | 256.27 ± 4
304.16 K, x1 = 0.5981 | 257.54 ± 4
304.16 K, x1 = 0.7015 | 257.2 ± 4
305.14 K, x1 = 0.0061 | 227.18 ± 3.5
305.14 K, x1 = 0.0249 | 231.73 ± 3.6
305.14 K, x1 = 0.0494 | 237.51 ± 3.7
305.14 K, x1 = 0.1 | 244.44 ± 3.8
305.14 K, x1 = 0.1547 | 248.76 ± 3.9
305.14 K, x1 = 0.1999 | 251.35 ± 3.9
305.14 K, x1 = 0.2993 | 255.22 ± 4
305.14 K, x1 = 0.4051 | 257.25 ± 4
305.14 K, x1 = 0.4986 | 258.3 ± 4
305.14 K, x1 = 0.5981 | 258.63 ± 4
305.14 K, x1 = 0.7015 | 258.36 ± 4
305.14 K, x1 = 0.8023 | 257.38 ± 4
305.14 K, x1 = 0.9139 | 256.1 ± 4
305.14 K, x1 = 0.9609 | 255.35 ± 4
306.15 K, x1 = 0.0061 | 227.53 ± 3.5
306.15 K, x1 = 0.0249 | 231.92 ± 3.6
306.15 K, x1 = 0.0494 | 237.81 ± 3.7
306.15 K, x1 = 0.1 | 244.85 ± 3.8
306.15 K, x1 = 0.1547 | 249.34 ± 3.9
306.15 K, x1 = 0.1999 | 252.03 ± 3.9
306.15 K, x1 = 0.2993 | 256.04 ± 4
306.15 K, x1 = 0.4051 | 258.23 ± 4
306.15 K, x1 = 0.4986 | 259.33 ± 4
306.15 K, x1 = 0.5981 | 259.69 ± 4
306.15 K, x1 = 0.7015 | 259.47 ± 4
306.15 K, x1 = 0.8023 | 258.63 ± 4
306.15 K, x1 = 0.9139 | 257.22 ± 4
306.15 K, x1 = 0.9609 | 256.43 ± 4
307.14 K, x1 = 0.0061 | 227.97 ± 3.5
307.16 K, x1 = 0.0249 | 232.13 ± 3.6
307.16 K, x1 = 0.0494 | 238.05 ± 3.7
307.16 K, x1 = 0.1 | 245.3 ± 3.8
307.16 K, x1 = 0.1547 | 249.89 ± 3.9
307.16 K, x1 = 0.1999 | 252.7 ± 3.9
307.16 K, x1 = 0.2993 | 256.85 ± 4
307.16 K, x1 = 0.4051 | 259.16 ± 4
307.16 K, x1 = 0.4986 | 260.39 ± 4
307.16 K, x1 = 0.5981 | 260.8 ± 4
307.16 K, x1 = 0.7015 | 260.58 ± 4
307.16 K, x1 = 0.8023 | 259.83 ± 4
307.16 K, x1 = 0.9139 | 258.36 ± 4
307.16 K, x1 = 0.9609 | 257.53 ± 4
308.14 K, x1 = 0.0061 | 228.36 ± 3.5
308.14 K, x1 = 0.0249 | 232.33 ± 3.6
308.14 K, x1 = 0.0494 | 238.3 ± 3.7
308.14 K, x1 = 0.1 | 245.7 ± 3.8
308.14 K, x1 = 0.2993 | 257.61 ± 4
308.14 K, x1 = 0.4051 | 260.05 ± 4
308.14 K, x1 = 0.4986 | 261.33 ± 4
308.14 K, x1 = 0.5981 | 261.79 ± 4.1
308.14 K, x1 = 0.7015 | 261.67 ± 4
308.14 K, x1 = 0.8023 | 260.9 ± 4
308.14 K, x1 = 0.9139 | 259.4 ± 4
308.14 K, x1 = 0.9609 | 258.61 ± 4
308.16 K, x1 = 0.1547 | 250.43 ± 3.9
308.16 K, x1 = 0.1999 | 253.31 ± 3.9
309.15 K, x1 = 0.0061 | 228.7 ± 3.5
309.15 K, x1 = 0.0249 | 232.53 ± 3.6
309.15 K, x1 = 0.0494 | 238.53 ± 3.7
309.15 K, x1 = 0.1 | 246.14 ± 3.8
309.15 K, x1 = 0.1547 | 250.99 ± 3.9
309.15 K, x1 = 0.1999 | 253.95 ± 3.9
309.15 K, x1 = 0.2993 | 258.43 ± 4
309.15 K, x1 = 0.4051 | 260.95 ± 4

Reference: the NIST ThermoML archive (doi:10.1016/j.jct.2008.10.010)
